Test results: US20060287316A1, “METHOD FOR IMPROVING PHARMACOKINETICS OF PROTEASE INHIBITORS AND PROTEASE INHIBITOR PRECURSORS” (priority 2005, published 2006)
pEC50: −log10 of the molar value. Read-outs that look alike come from different tables or passages of the source.

How the values were obtained:
[1] = tested on: laboratory adapted HIV strain (NL4-3); assay: microbe, parasite or virus in culture; settings: for pEC50: Human immunodeficiency virus 1, NL43, MT4, MT4 cells infected with NL4-3; for SI (CC50/EC50): ratio of cytotoxicity (CC50) to antiviral activity (EC50)
Procedure: Briefly, the antiviral activity of PL-100 was determined using MT4 cells infected with a laboratory adapted HIV strain (NL4-3). For comparison, seven approved protease inhibitors (PIs) were tested in parallel.
The effect of 40% human serum on the antiviral activity of PL-100 in MT4 cells infected with NL4-3 was therefore evaluated.

[2] = Cytotoxicity in the same cell culture system; type: cell-based; settings: human, MT4 cells
Procedure: Cytotoxicity of PL-100 and other P is was evaluated in the same cell culture system. The selectivity index (SI) is the ratio of cytotoxicity (CC50) to antiviral activity (EC50). The selective index is similar to the therapeutic index but relates to in vitro studies.

[3] = tested on: 63 HIV isolates with reduced susceptibility to all approved protease inhibitors; type: cell-based, HIV-1; settings: for % FC < 2.5 / % FC < 10 / % FC > 50 / Mean FC / Median FC: 63 diverse, multi-PI-resistant strains; for Mean FC / Median FC: FC in IC50 vs NL-4.3
From the text: The cross-resistance profile of PL-100 against 63 HIV isolates with reduced susceptibility to all approved protease inhibitors (P is) including atazanavir was thus tested.
The panel of 63 viral strains was selected based on the following rationale: 1) High-level loss of susceptibility to specific P is; 2) High-level loss of susceptibility to multiple P is; 3) Good representation of the primary mutations. This panel consists of resistant viruses from highly PI-experienced patients with high-level PI resistance.
The genotype of these viruses encompasses a wide variety of mutational patterns. We particularly looked for the following primary PI mutations: D30N, L33F/I, M461/L, G48V, I50L/V, V82A/F/S/T, I84V and L90M as defined by the International AIDS Society (IAS)-USA.
The dark cells indicate a […], the grey cells indicate FC values of 2.5≦FC<10 and the white cells indicate a FC value of; 0≦FC<2.5. The results of cross-resistance profile are further illustrated in the graph of FIG. 1.
In the cross-resistance profiling studies against the 63 resistant strains mentioned herein, EC95 of PL-100 was determined against each strain. The median EC95 represents the concentration required to inhibit 95% of the viral replication of 50% diverse drug-resistant HIV-1 variants tested. Table 8 illustrates the percentage of resistant strains tested with protein-binding adjusted EC95s≦200 ng/ml. The resistant strains are grouped by the number of primary mutations they have.
The EC95 of PL-100 was determined against each of the 63 resistant strains indicated herein. Table 9 illustrates the percentage of resistant strains tested with protein-binding adjusted EC95s≦630 ng/ml. The resistant strains are grouped by the number of primary mutations they have.

[4] = Plasma concentration after single oral dose in rats (in vivo cleavage of the phosphate group); parameters: species or system male Sprague-Dawley rats; settings: for AUC: 50 mg/Kg po, vehicle PBS, 3 rats, released active ingredient detected (PL-100 for PL-462, PL-337 for PL-515); for Detection of the administered phosphate compound in blood samples: 50 mg/kg po as aqueous solution
Procedure: To assess the extent of in vivo cleavage of the phosphate group from the putative compounds, PL-100, PL-462 (based on PL-100), PL-337 and PL-515 (based on PL-337) compounds were administered po (per os, (i.e., by mouth)) (50 mg/kg) to male Sprague-Dawley rats and their plasma concentration measured at different time intervals post-administration.
All test articles (PL-100, PL-462, PL-337 and PL-515) were prepared in different vehicle at the final concentration of 25 mg/mL. The vehicle composition is as follows: (1) 20% ethanol; 50% propylene glycol; 0.05% w/v Tween 20 and water (Mix); (2) PBS buffer (PBS).
Test articles were administered to male Sprague-Dawley rats at a single oral dose of 50 mg/kg. Each article was tested in three rats. Blood samples (0.2-0.3 mL) were collected at the post-dose time of 10, 20, 40, 60, 120, 180 and 360 minutes. The harvested blood was centrifuged to isolate plasma. The resulting plasma was separated and stored at −70° C.
Plasma samples together with standards and quality control samples were treated to precipitate proteins, then analyzed by HPLC-MS, for the presence of PL-462, PL-100, PL-515 and PL-337.

[5] = sample O4-148748, 37S/41K/70E, panel ID 115
[6] = sample O4-148749, 37T/41K/70E, panel ID 151

| SMILES | pEC50 [1] | CC50 [2] | % FC < 2.5 [3] | % FC < 10 [3] | % FC > 50 [3] | Mean FC [3] | Median FC [3] | SI (CC50/EC50) [1] | Fold change in IC50 vs. Reference ([3]; sample O3-148709 (non-B subtype), 32I/47A, panel ID 1) | Fold change in IC50 vs. Reference [3, 5] | Fold change in IC50 vs. Reference [3, 6] | Fold change in IC50 vs. Reference ([3]; sample O3-129586, 30N/88D/90M, panel ID 28) | Fold change in IC50 vs. Reference ([3]; sample O4-148712, 46I/88S, panel ID 122) | Fold change in IC50 vs. Reference ([3]; sample O4-148713, 46I/88S, panel ID 123) | AUC [4] | Detection of the administered phosphate compound in blood samples [4] |
| --- | --- | --- | --- | --- | --- | --- | --- | --- | --- | --- | --- | --- | --- | --- | --- | --- |
| CC(C)CN(C[C@@H](O)[C@H](Cc1ccccc1)NC(=O)O[C@H]1CCOC1)S(=O)(=O)c1ccc(N)cc1 [Amprenavir] | 7.33 | > 100000 nM | 14% | 52% | 8% | 18.5 | 9.7 |  |  |  |  |  |  |  |  |  |
| COC(=O)N[C@H](C(=O)N[C@@H](Cc1ccccc1)[C@@H](O)CN(Cc1ccc(-c2ccccn2)cc1)NC(=O)[C@@H](NC(=O)OC)C(C)(C)C)C(C)(C)C [Atazanavir] | 8.40 | 55000 nM | 16% | 38% | 22% | 25.7 | 15.6 | 13,750 | 1 | 1.4 | 1.5 |  |  |  |  |  |
| CC(C)(C)NC(=O)[C@@H]1CN(Cc2cccnc2)CCN1C[C@@H](O)C[C@@H](Cc1ccccc1)C(=O)N[C@H]1c2ccccc2C[C@H]1O [Indinavir] | 7.17 | > 100000 nM | 13% | 54% | 5% | 16.5 | 8.1 |  |  |  |  |  |  |  |  |  |
| Cc1cccc(C)c1OCC(=O)N[C@@H](Cc1ccccc1)[C@@H](O)C[C@H](Cc1ccccc1)NC(=O)[C@H](C(C)C)N1CCCNC1=O [Lopinavir] | 7.72 | 28000 nM | 10% | 37% | 19% | 31.3 | 17.9 | 1,474 |  | 1 | 1.3 | 1.2 | 1.7 | 0.7 |  |  |
| COC(=O)N[C@H](C(=O)NCCCC[C@@H](COP(=O)(O)O)N(CC(C)C)S(=O)(=O)c1ccc(N)cc1)C(c1ccccc1)c1ccccc1.[Na] [PL-462, (1S,5S)-(1-{5-[(4-amino-benzenesulfonyl)-isobutyl-amino]-6-phosphonooxy-hexylcarbamoyl}-2,2-diphenyl-ethyl)-carbamic Acid Methyl Ester Sodium Salt] |  |  |  |  |  |  |  |  |  |  |  |  |  |  | 0.816 ± 0.295 μg/hr * ml | None of the PL-462 and PL-515 compounds, delivered as aqueous solutions, are detected |
| COC(=O)N[C@H](C(=O)NCCCC[C@@H](COP(=O)(O)O)N(CC(C)C)S(=O)(=O)c1ccc(N)c(F)c1)C(c1ccccc1)c1ccccc1 [PL-515, (1S,5S)-(1-{5-[(4-amino-3-fluoro-benzenesulfonyl)-isobutyl-amino]-6-phosphonooxy-hexylcarbamoyl}-2,2-diphenyl-ethyl)-carbamic acid methyl ester] |  |  |  |  |  |  |  |  |  |  |  |  |  |  | 1.075 ± 0.625 μg/hr * ml | None of the PL-462 and PL-515 compounds, delivered as aqueous solutions, are detected |
| CC(C)c1nc(CN(C)C(=O)N[C@H](C(=O)N[C@@H](Cc2ccccc2)C[C@H](O)[C@H](Cc2ccccc2)NC(=O)OCc2cncs2)C(C)C)cs1 [Ritonavir, ritonavir] | 7.21 |  |  |  |  |  |  |  |  |  |  |  |  |  |  |  |
